The test system of this experiment is gliomas. To be noted: single dose administered two days before rQNestin34.5v.2. The text has this: Mammals are able to rapidly counteract HSV1 in the brain through their initial immune responses.

With `O=P1(N(CCCl)CCCl)NCCCO1` (centres unmarked) [cyclophosphamide], the “effect on viral biodistribution, replication and efficacy” value is “significantly enhances viral biodistribution, replication and efficacy”; the “reduction of the dose of virus required to produce a survival effect” value was “two orders of magnitude”.
